In patent US12017997B2, “Host-targeted pan-respiratory antiviral small molecule therapeutics” (priority 2021, dated 2024):
Read-outs that look alike come from different tables or passages of the source.

Legend:
[1] = test system: recombinant Nipah virus expressing ZsGreen fluorescence protein (rNiV-ZsG); assay: microbe, parasite or virus in culture; conditions: Henipavirus nipahense, MRC5, 72 h, read-out: MRC-5 EC50
[2] = Toxicity testing: cell viability, Alamar Blue HS; conditions: human, MRC-5 cells (uninfected)
[3] = test system: recombinant Nipah virus expressing ZsGreen fluorescence protein (rNiV-ZsG); conditions: human
[4] = test system: MRC-5 cells; assay: Toxicity testing: cell viability, Alamar Blue HS; conditions: read-out: MRC-5 CC50; uninfected MRC-5 cells, 72 hours post-compound treatment

SMILES | EC50 [1] | CC50 at 72 h [2] | EC50 [3] | CC50 [4]
COc1c(CNC(=O)c2cc(C3CC3)nn2C)cccc1OCc1ccc(C(=O)N2CCN(S(=O)(=O)CC(C)C)CC2C)cc1 (stereo not shown) [Compound 8] | 194 nM | > 5 µM | – | –
COc1c(CNC(=O)c2cc(C3CC3)nn2C)cccc1OCc1ccc(C(=O)N2CCN(S(C)(=O)=O)CC2)cc1 [Compound 9] | 508 nM | > 5 µM | – | –
CC(=O)N1CCN(Cc2ccc(COc3cccc(CNC(=O)c4cc(C5CC5)nn4C)c3F)cc2)CC1 [Compound 13] | 628 nM | > 5 µM | – | –
COc1c(CNC(=O)c2cc(C3CC3)nn2C)cccc1OCc1ccc(CN2CCN(S(=O)(=O)CC(C)C)CC2)cc1 [Compound 17] | – | – | 29.7 nM | > 5 µM
COc1c(CNC(=O)c2cc(C3CC3)nn2C)cccc1OCc1ccc(CN2CCCC2)cc1 [Compound 18] | 124 nM | > 5 µM | – | –
COc1c(CNC(=O)c2cc(C3CC3)nn2C)cccc1OCc1ccc(CN2CCN(S(=O)(=O)CC(C)C)CC2)cc1 [Compound 19] | – | > 5 µM | 14.6 nM | –
COc1c(CNC(=O)c2cc(C3CC3)nn2C)cccc1OCc1ccc(CN2CCN(C)CC2)cc1 [Compound 23] | 324 nM | > 5 µM | – | –
Cn1nc(C2CC2)cc1C(=O)NCc1cccc(OCc2ccc(C(=O)N3CCN(S(C)(=O)=O)CC3)cc2)c1Cl [Compound 63] | 6820 nM | > 5 µM | – | –
Cn1nc(C2CC2)cc1C(=O)NCc1ccc(OCc2ccc(C(=O)N3CCN(S(C)(=O)=O)CC3)cc2)c(OC(F)(F)F)c1 [Compound 80] | 1440 nM | > 5 µM | – | –
COc1c(CNC(=O)c2cc(C3CC3)nn2C)cccc1OCc1cccc(CN2CCN(C(C)=O)CC2)c1 [Compound 88] | 144 nM | > 5 µM | – | –
COc1c(CNC(=O)c2cc(C3CC3)nn2C)cccc1OCc1ccc(S(=O)(=O)N2CCN(S(C)(=O)=O)CC2)cc1 [Compound 91] | 1660 nM | > 5 µM | – | –
COc1c(CNC(=O)c2cc(C3CC3)nn2C)cccc1OCc1ccc(S(=O)(=O)N2CCN(C)CC2)cc1 [Compound 92] | 16700 nM | > 5 µM | – | –
COc1c(CNC(=O)c2cc(C3CC3)nn2C)cccc1OCc1ccc(C(=O)NC2CCN(S(C)(=O)=O)CC2)cc1 [Compound 94] | 1060 nM | > 5 µM | – | –
COc1c(CNC(=O)c2cc(C3CC3)nn2C)cccc1OCc1ccc(C(=O)N2CCC(N(C)S(C)(=O)=O)CC2)cc1 [Compound 96] | 16100 nM | > 5 µM | – | –
COc1c(CNC(=O)c2cc(C3CC3)nn2C)cccc1N(C)Cc1ccc(C(=O)N2CCN(S(C)(=O)=O)CC2)cc1 [Compound 113] | 1500 nM | > 5 µM | – | –
COc1c(CNC(=O)c2cc(C3CC3)nn2C)cccc1N1CCN(S(C)(=O)=O)CC1 [Compound 118] | 3850 nM | > 5 µM | – | –
Cc1c(CNCc2cc(C3CC3)nn2C)cccc1OCc1ccc(C(=O)N2CCN(S(C)(=O)=O)CC2)cc1 [Compound 127] | 20000 nM | > 5 µM | – | –
COc1c(CNC(=O)c2cc(C3CC3)nn2C)cccc1OCc1ccc(OC(=O)N2CCN(S(C)(=O)=O)CC2)cc1 [Compound 128] | – | > 5 µM | – | –
COc1c(CNC(=O)c2cc(C3CC3)nn2C)cccc1Oc1ccc(C(=O)N2CCN(S(C)(=O)=O)CC2)nn1 [Compound 133] | 6320 nM | > 5 µM | – | –
COc1c(CNC(=O)c2cc(C3CC3)nn2C)cccc1OCc1ccc(COC(=O)N2CCN(S(=O)(=O)CC(C)C)CC2)cc1 [Compound 173] | 23.9 nM | > 5 µM | – | –
COc1c(CNC(=O)c2cc(C3CC3)nn2C)cccc1OCc1ccc(COC(=O)N2CCN(C(C)=O)CC2)cc1 [Compound 174] | 129 nM | > 5 µM | – | –
CN1CCN(Cc2ccc(COc3ccc(CNC(=O)c4cc(C5CC5)nn4C)cc3Cl)cc2)CC1 [Compound 175] | 200 nM | > 5 µM | – | –
